These results are taken from ChEMBL document CHEMBL1135297, “Enantioselective synthesis of S-(+)-2beta-carboalkoxy-3alpha-[bis(4-fluorophenyl)methoxy]tropanes as novel probes for the dopamine transporter” (Bioorg Med Chem Lett, 2002).

Each structure is given as a SMILES string.

In assay [1] the target is Sodium-dependent dopamine transporter (Rattus norvegicus, UniProt P23977). Description: Ability to displace [3H]WIN-35 radioligand for the dopamine transporter 428 DAT in rat brain. Format: tissue-based.
Chain of Sodium-dependent dopamine transporter (P23977 whole entry): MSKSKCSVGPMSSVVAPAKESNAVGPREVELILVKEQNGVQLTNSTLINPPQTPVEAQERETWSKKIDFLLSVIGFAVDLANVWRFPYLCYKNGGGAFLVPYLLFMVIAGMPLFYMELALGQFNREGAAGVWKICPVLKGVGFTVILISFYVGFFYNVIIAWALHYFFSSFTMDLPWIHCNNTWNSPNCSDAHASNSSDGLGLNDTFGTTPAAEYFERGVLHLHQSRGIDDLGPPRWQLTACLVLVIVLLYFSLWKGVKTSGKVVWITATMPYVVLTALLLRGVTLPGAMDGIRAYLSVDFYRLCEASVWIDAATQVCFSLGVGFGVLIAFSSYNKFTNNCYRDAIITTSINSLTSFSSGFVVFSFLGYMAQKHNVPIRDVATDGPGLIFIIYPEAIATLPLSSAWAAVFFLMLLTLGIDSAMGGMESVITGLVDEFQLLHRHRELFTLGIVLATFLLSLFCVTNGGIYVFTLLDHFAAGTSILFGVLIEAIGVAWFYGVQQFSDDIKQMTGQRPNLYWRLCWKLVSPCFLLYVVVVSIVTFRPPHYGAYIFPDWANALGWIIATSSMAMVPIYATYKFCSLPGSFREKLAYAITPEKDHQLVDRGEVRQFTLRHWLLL
For assay [2], the target named is T1, Muscarinic acetylcholine receptor M1 (Rattus norvegicus, UniProt P08482).
T1 sequence (P08482 whole entry): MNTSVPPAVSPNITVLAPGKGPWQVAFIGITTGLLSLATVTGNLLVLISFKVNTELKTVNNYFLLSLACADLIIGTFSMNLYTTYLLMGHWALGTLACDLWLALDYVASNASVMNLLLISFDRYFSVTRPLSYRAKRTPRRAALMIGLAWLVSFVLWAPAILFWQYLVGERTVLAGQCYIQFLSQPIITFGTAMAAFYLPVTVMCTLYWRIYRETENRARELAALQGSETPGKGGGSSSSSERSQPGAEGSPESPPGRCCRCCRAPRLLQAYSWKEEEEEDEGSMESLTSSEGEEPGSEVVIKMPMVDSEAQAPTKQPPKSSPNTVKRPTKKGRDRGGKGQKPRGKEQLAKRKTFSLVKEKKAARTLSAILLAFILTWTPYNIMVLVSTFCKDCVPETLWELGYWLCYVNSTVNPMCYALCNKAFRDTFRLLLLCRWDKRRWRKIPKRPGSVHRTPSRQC
Description: Ability to displace [3H]pirenzepine radioligand for the Muscarinic acetylcholine receptor M1 in rat brain. Format: tissue-based.

The target of assay [3] is Norepinephrine transporter (Rattus norvegicus, UniProt Q9WTR4). Description: Ability to displace [3H]-nisoxatine radioligand for the Norepinephrine transporter in rat brain. It counts as tissue-based.
Chain of Norepinephrine transporter (Q9WTR4 whole entry): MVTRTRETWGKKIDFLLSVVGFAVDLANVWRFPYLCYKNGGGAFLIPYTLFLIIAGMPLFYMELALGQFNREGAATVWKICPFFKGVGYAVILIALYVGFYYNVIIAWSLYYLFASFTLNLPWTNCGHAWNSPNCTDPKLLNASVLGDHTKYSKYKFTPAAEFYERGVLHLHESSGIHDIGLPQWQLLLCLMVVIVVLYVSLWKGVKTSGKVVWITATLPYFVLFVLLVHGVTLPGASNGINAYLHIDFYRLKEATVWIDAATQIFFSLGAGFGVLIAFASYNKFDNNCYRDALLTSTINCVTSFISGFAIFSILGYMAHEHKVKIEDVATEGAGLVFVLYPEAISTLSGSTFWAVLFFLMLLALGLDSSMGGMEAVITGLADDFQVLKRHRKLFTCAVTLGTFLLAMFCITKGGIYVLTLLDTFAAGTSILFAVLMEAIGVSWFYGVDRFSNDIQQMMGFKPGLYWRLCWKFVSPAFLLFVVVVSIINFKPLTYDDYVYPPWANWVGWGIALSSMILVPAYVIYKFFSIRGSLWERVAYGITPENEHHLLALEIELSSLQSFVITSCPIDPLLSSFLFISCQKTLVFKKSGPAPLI
The species named for a further assay is Rattus norvegicus. The assay is described as follows: Inhibition of [3H]DA uptake in rat synaptosomes. Format: functional, Brain.
In assay [4] the target is Sodium-dependent serotonin transporter (Rattus norvegicus, UniProt P31652). Description: Ability to displace [3H]citalopram radioligand, for the Serotonin transporter in rat brain. It counts as tissue-based.
Chain of Sodium-dependent serotonin transporter (P31652 whole entry): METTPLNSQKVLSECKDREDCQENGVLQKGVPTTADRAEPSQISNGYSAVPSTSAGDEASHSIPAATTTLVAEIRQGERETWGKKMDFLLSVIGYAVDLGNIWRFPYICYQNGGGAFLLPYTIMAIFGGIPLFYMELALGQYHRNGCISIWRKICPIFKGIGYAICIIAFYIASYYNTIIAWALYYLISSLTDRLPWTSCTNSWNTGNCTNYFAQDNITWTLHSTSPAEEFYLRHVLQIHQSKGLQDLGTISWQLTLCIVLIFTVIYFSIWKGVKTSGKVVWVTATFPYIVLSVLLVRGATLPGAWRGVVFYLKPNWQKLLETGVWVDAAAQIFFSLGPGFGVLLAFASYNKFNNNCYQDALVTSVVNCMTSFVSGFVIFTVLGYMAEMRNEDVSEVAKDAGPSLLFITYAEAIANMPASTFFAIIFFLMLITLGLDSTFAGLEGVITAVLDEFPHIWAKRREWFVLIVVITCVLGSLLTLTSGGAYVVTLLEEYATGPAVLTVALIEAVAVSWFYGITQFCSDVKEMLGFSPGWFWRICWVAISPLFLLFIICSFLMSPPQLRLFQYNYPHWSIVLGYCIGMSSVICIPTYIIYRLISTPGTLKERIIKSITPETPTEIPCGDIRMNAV

By Ki is commonly meant the dissociation constant of the complex between target and ligand, obtained from inhibition or displacement. The low end stands for higher affinity, the high end for lower affinity. For orientation: IC50 means the concentration that gives 50% inhibition. Consider `CN1C2CCC1C(C(=O)OCc1ccccc1)C(OC(c1ccc(F)cc1)c1ccc(F)cc1)C2` (stereo unspecified), for which the Ki in assay [1] is 40.2 nM; in assay [2], 4380 nM; in assay [3], 2230 nM; in assay [4], 2040 nM. Further, the IC50 in the assay listed under Rattus norvegicus (Rattus norvegicus, Brain) was determined as 2.2 nM.

For `COC(=O)C1C(OC(c2ccc(F)cc2)c2ccc(F)cc2)CC2CCC1N2C` (racemic), the Ki stood at 21.3 nM in assay [1], 302 nM in assay [2], 474 nM in assay [3] and 1750 nM in assay [4]. In addition, the midpoint of inhibition in the assay listed under Rattus norvegicus, the IC50, lay at 2.9 nM.

Take `CCOC(=O)C1C(OC(c2ccc(F)cc2)c2ccc(F)cc2)CC2CCC1N2C` (racemic): the Ki in assay [1] is 26.2 nM; in assay [2], 1860 nM; in assay [3], 1020 nM; in assay [4] it was 3740 nM. In the assay filed under Rattus norvegicus (Rattus norvegicus, Brain), this compound showed an IC50 of 3.6 nM.

Consider `CN1C2CCC1C(C(=O)OCc1ccccc1)C(OC(c1ccc(F)cc1)c1ccc(F)cc1)C2` (racemic), for which the Ki was determined as 90.3 nM in assay [1], 5100 nM in assay [2], 4110 nM in assay [3] and 3320 nM in assay [4]. The same compound came in with a 50% inhibitory concentration (IC50) in the assay listed under Rattus norvegicus of 3.5 nM.

Take `CC(C)OC(=O)C1C(OC(c2ccc(F)cc2)c2ccc(F)cc2)CC2CCC1N2C` (racemic): the Ki in assay [1] was determined as 49.1 nM; in assay [2] it was 7640 nM; in assay [3] it was 1990 nM; in assay [4], 13800 nM. In addition, it took 6.8 nM to reach half-maximal inhibition in the assay filed under Rattus norvegicus (IC50).

Consider `COC(=O)C1C(OC(c2ccc(F)cc2)c2ccc(F)cc2)CC2CCC1N2C` (single isomer, unassigned; (+)), for which the Ki was found to be 12.9 nM in assay [1], 133 nM in assay [2], 269 nM in assay [3] and 690 nM in assay [4]. 1.5 nM corresponded to half-maximal inhibition in the assay filed under Rattus norvegicus (Rattus norvegicus, Brain) (IC50).

Turning to `CCOC(=O)C1C(OC(c2ccc(F)cc2)c2ccc(F)cc2)CC2CCC1N2C` (single isomer, unassigned; (+)), the Ki came out at 16.8 nM in assay [1], 1890 nM in assay [2], 629 nM in assay [3] and 1850 nM in assay [4].

On to `CC(C)OC(=O)C1C(OC(c2ccc(F)cc2)c2ccc(F)cc2)CC2CCC1N2C` (single isomer, unassigned; (+)), for which the Ki in assay [1] came out at 23.3 nM; in assay [2] it was 2680 nM; in assay [3], 642 nM; in assay [4] it was 12000 nM. In the assay filed under Rattus norvegicus (Rattus norvegicus, Brain), this compound showed an IC50 of 6.2 nM.

For the compound `CN1C2CCC1CC(OC(c1ccc(F)cc1)c1ccc(F)cc1)C2` (stereo unspecified) [DIFLUOROBENZTROPINE], the inhibition constant Ki in assay [3] was 610 nM; in assay [4], 3260 nM.
